One molecule from ChEMBL document CHEMBL4043062, “Recent developments in the isolation, biological function, biosynthesis, and synthesis of phenazine natural products” (Bioorg Med Chem, 2017) can be followed below.

The test system of this experiment is Mycobacterium tuberculosis. The experiment is described as follows: Antitubercular activity against rifampicin-resistant Mycobacterium tuberculosis ATCC 35338 harboring His-526-Tir mutation in rpoB gene after 7 days by Resazurin microtitre assay. It is filed as functional.

In brackets after ≈: the same amount, converted by molar mass.

`C=CCC1Cc2c(c3ccccc3c3nc4ccccc4nc23)OC1(C)C` (stereo unspecified) yielded an MIC of 2.2 µM (≈ 0.78 µg/mL).
